Laboratory results: US6753005B1, “Method for tissue perfusion” (Direct Therapeutics, Inc., priority 1997, dated 2004)
Entries after “also recorded” stand apart in the source; their conditions may differ. Where two headings read alike, the source gives them in different places.

How the values were obtained:
normal rat liver = assay: Normal rat liver model, intrahepatic injection; assay type: in vivo; details: for Clinical Signs / Gross Findings (liver lesions) / Survival: 2 rats; for Gross Findings (liver lesions): 2 weeks; for Survival: sacrifice 2 weeks
Method: 54 male Sprague-Dawley rats 250-300 g in body weight were caged in groups of 2 by treatment group, in standard animal housing facilities and given free access to food and water. Prior to surgery, animals received 0.2 ml intramuscular injection of ketamine and xylazine (30 mg/kg and 4 mg/kg respectively). Rats were anesthetized and fixed on a restraining board. The right upper quadrant of the abdomen was shaved and prepped with betadine solution. A lateral incision approximately 1 cm in length was made 2 cm to the right of the abdominal mid-line and 2 cm below the last rib on the right side and the liver exposed. Under direct visual observation, the solution was injected into the liver slowly over a period of about 2 minutes, using a Hamilton microliter syringe (702) equipped with a 27 gauge needle. The needle was withdrawn and the abdominal incision closed using 4-0 plain gut to seal the peritoneum and skin clips to close the skin. Observations of each animal were made hourly for 4 hours during the day of surgery and daily thereafter for two weeks. At two weeks the animals were sacrificed and their livers examined grossly for lesions at the site of injection.

normal feline brain = assay: Normal feline brain model, direct intra-tissue injection; details: for Gross Findings: lesion size: 2 weeks
Method: Mongrel cats weighing 2.5-3.0 kg were obtained from Liberty Research, Waverly, N.Y. Animals were anaesthetized using intramuscular acepromazine at 0.1 mg/kg, followed by 0-30 mg total dose of ketamine. A small incision was made over and extending posteriorly from the coronal suture. A 3 mm burr hole was made 0.75 cm posterior to the coronal suture and 0.75 cm lateral to the midline. Using a stereotactic frame, solutions were injected at a depth of 0.75 cm in the area of the sensory cortex. The burr hole was closed with bone wax and the skin closed with a skin clip. Doses of carmustine between 5 and 20 mg were administered in dehydrated alcohol volumes of between 0.05-0.4 ml. Two weeks post injection animals were sacrificed, the brain removed in toto and fixed in 10% buffered formalin and the brain examined grossly for lesions at the site of injection. Solutions injected consisted of an ethanol solvent vehicle alone, or containing varying concentrations of carmustine.

Walker 256 tumors = details: for Tumor Free at Time of Death: number of animals
Method: Tumor fragments derived from serially transplanted Walker 256 tumors were prepared and transplanted subcutaneously into female Harlan Sprague Dawley rats. Once the tumors reached appropriate size, animals were randomized into treatment groups of 5 or 6 animals and an untreated control group of 10 animals. Tumor volume for each animal was calculated using the formula: volume=(I×w2)/2. Observations included daily visual observation of each animal's general health, tumor measurements three times per week and weight every week. These measurements continued until: efficacy was apparent, the animal was terminal, the tumor became necrotic, tumor interfered with the animal's ability to eat or drink, or ten weeks beyond commencement of dosing.
Fifty rats bearing tumors ranging from 550 to 1634 mm^3 were randomly divided into eight treatment groups and 2 control groups. The following treatments were respectively administered to the eight treatment groups: […]

[1] = 100 μl ethanol + 1.25 mg carmustine (12.5 mg/ml)
[2] = 100 μl ethanol + 2.5 mg carmustine (25 mg/ml)
[3] = 100 μl ethanol + 5 mg carmustine (50 mg/ml)
[4] = 100 μl ethanol + 10 mg carmustine (100 mg/ml)
[5] = 100 μl ethanol, 12.5-50 mg/ml carmustine
[6] = 0.05 ml ethanol + 5 mg carmustine (100 mg/ml), 1 cat
[7] = 0.05 ml ethanol + 20 mg carmustine (400 mg/ml), 1 cat
[8] = 0.1 ml ethanol + 10 mg carmustine (100 mg/ml), 1 cat
[9] = 0.2 ml ethanol + 5 mg carmustine (25 mg/ml), 1 cat
[10] = 0.4 ml ethanol + 5 mg carmustine (12.5 mg/ml), 1 cat
[11] = Group VI: carmustine 3.3 mg/ml in absolute ethanol, 100% tumor volume

**Q.** Which “Clinical Signs” value (normal rat liver; [1]) does the source give for `O=NN(CCCl)C(=O)NCCCl` [Carmustine, carmustine] here?
**A.** The value was “ANAS”.

**Q.** And the “Gross Findings (liver lesions)” value (normal rat liver; [1])?
**A.** The value was “no lesion”.

**Q.** What about the Survival (normal rat liver; [1]) of the same compound?
**A.** Its Survival is “term”.

**Q.** And the “Gross Findings (liver lesions)” value (normal rat liver; [2])?
**A.** Its value is “very small lesions”.

**Q.** And the Survival (normal rat liver; [2])?
**A.** Its Survival is “term”.

**Q.** What about the “Gross Findings (liver lesions)” value (normal rat liver; [3]) of the same compound?
**A.** The value was “small lesions”.

**Q.** What about the Survival (normal rat liver; [3]) of the same compound?
**A.** Its Survival is “term”.

**Q.** And the “Clinical Signs” value (normal rat liver; [4])?
**A.** The value was “Less active &”.

**Q.** What about the “Gross Findings (liver lesions)” value (normal rat liver; [4]) of the same compound?
**A.** The value was “large areas of tissue destruction; also recorded: fice. Large areas”.

**Q.** And the Survival (normal rat liver; [4])?
**A.** The Survival was “term”.

**Q.** What about the “Clinical signs at sacrifice” value (normal rat liver; [5]) of the same compound?
**A.** The value was “appeared normal at sacrifice”.

**Q.** What about the “gross examination of the liver” value (normal rat liver; [5]) of the same compound?
**A.** Its value is “no or small lesions”.

**Q.** And the “toxic effects in normal liver tissue” value (normal rat liver; solutions containing carmustine up to 50 mg/ml)?
**A.** Its value is “no toxic effects”.

**Q.** And the “Clinical Signs” value (normal feline brain; [6])?
**A.** The value was “NPND”.

**Q.** And the “Gross Findings: lesion size” value (normal feline brain; [6])?
**A.** The value was 2-3 mm.

**Q.** And the Survival (normal feline brain; 0.05 ml ethanol + 5 mg carmustine (100 mg/ml), 1 cat, sacrifice 2 weeks)?
**A.** Its Survival is “Term”.

**Q.** What about the “Clinical Signs” value (normal feline brain; 0.05 ml ethanol + 10 mg carmustine (200 mg/ml), 1 cat) of the same compound?
**A.** The value was “Circles to left, otherwise”.

**Q.** And the Survival (normal feline brain; 0.05 ml ethanol + 10 mg carmustine (200 mg/ml), 1 cat, sacrifice 2 weeks)?
**A.** The Survival was “Term”.

**Q.** And the “Clinical Signs” value (normal feline brain; [7])?
**A.** The value was “Died”.

**Q.** What about the “Gross Findings: lesion size (diameter)” value (normal feline brain; [7]) of the same compound?
**A.** The value was 1-1.5 cm.

**Q.** What about the Survival (normal feline brain; [7]) of the same compound?
**A.** Its Survival is 3 days.

**Q.** And the volume of lesion (normal feline brain; 0.05 ml ethanol containing 20 mg (400 mg/ml) carmustine)?
**A.** The volume of lesion was 1.0 to 1.77 mL.

**Q.** What about the volume of lesions (normal feline brain; 0.05 ml ethanol containing 10 and 20 mg (200 and 400 mg/ml) carmustine) of the same compound?
**A.** The volume of lesions was 1.0 to 1.77 mL.

**Q.** What about the “Clinical Signs” value (normal feline brain; [8]) of the same compound?
**A.** The value was “NPND”.

**Q.** And the “Gross Findings: lesion size” value (normal feline brain; [8])?
**A.** Its value is 4-5 mm.

**Q.** What about the Survival (normal feline brain; 0.1 ml ethanol + 10 mg carmustine (100 mg/ml), 1 cat, sacrifice 2 weeks) of the same compound?
**A.** The Survival was “Term”.

**Q.** What about the “Clinical Signs” value (normal feline brain; [9]) of the same compound?
**A.** The value was “NPND”.

**Q.** What about the “Gross Findings: lesion size” value (normal feline brain; [9]) of the same compound?
**A.** Its value is 4 mm.

**Q.** And the Survival (normal feline brain; 0.2 ml ethanol + 5 mg carmustine (25 mg/ml), 1 cat, sacrifice 2 weeks)?
**A.** The Survival was “Term”.

**Q.** And the “Clinical Signs” value (normal feline brain; [10])?
**A.** Its value is “NPND”.

**Q.** And the “Gross Findings: lesion size” value (normal feline brain; [10])?
**A.** Its value is 2-3 mm.

**Q.** And the Survival (normal feline brain; 0.4 ml ethanol + 5 mg carmustine (12.5 mg/ml), 1 cat, sacrifice 2 weeks)?
**A.** The Survival was “Term”.

**Q.** And the “toxic effects on the tissue” value (normal feline brain; 0.4 ml ethanol containing 5 mg (12.5 mg/ml) carmustine)?
**A.** Its value is “no toxic effects”.

**Q.** What about the “effect on post-mitotic (non-dividing) cells of normal brain” value (normal feline brain; 50 μl ethanol, carmustine 200 or 400 mg/ml) of the same compound?
**A.** The value was “destruction of a relatively large volume of tissue; also recorded: novel activity of carmustine against non-dividing cells”.

**Q.** And the “toxic effects in normal brain tissue” value (normal feline brain; solutions containing carmustine up to 100 mg/ml)?
**A.** Its value is “no toxic effects”.

**Q.** And the “selective effect on tumor cells” value (Walker 256 tumors; 100% ethanol and 3.3 mg/ml carmustine)?
**A.** Its value is “selectively kill tumor cells”.

**Q.** And the “Complete Regressors/Total” value (Walker 256 tumors; [11])?
**A.** Its value is 4/5.

**Q.** And the “local findings in the area of the tumor” value (Walker 256 tumors; [11])?
**A.** Its value is “no evidence of scar, hair loss or residual redness”.

**Q.** And the “Mean Days to Tumor Size 5000 mm^3 after treatment” value (Walker 256 tumors; Group VI: carmustine 3.3 mg/ml in absolute ethanol, 100% tumor volume, 2 animals)?
**A.** Its value is 29.5 days.

**Q.** What about the “Tumor Free at Time of Death” value (Walker 256 tumors; [11]) of the same compound?
**A.** The value was 3.

**Q.** What about the “Tumor Free at Time of Death” value (Walker 256 tumors; Group VI: carmustine 3.3 mg/ml in absolute ethanol, 100% tumor volume, listed as carmustine) of the same compound?
**A.** Its value is “three”.
